Laboratory results from patent publication US20140323757A1, “Biosurfactant Isolated from Yeast” (Gyeongbuk Institute of Marine Bio-industry, priority 2013, published 2014).

assay: Surface tension measurement; assay type: physicochemical; set-up: unit not given here; conditions: at 1.5 mg/L
Source text: Surface tension is increased in proportion to molecular interaction, and hydrocarbons or organic polymers show low surface tension due to their weak molecular interaction. Surface tension is represented by N/m. Since surfactants have hydrophobic and hydrophilic groups, when added to water, its surface tension is lowered. […] The compounds represented by […]

Point of comparison: `CCCCCC(=O)OC1C(O)C(O)C(O)C(OC(=O)CCCCC)C1OC(C)=O` (centres unmarked) [Compound A57-4-gly-3], “Surface Tension” value 28.71. Against it:
- CCCCCC(=O)OC1C(O)C(O)C(O)C(OC(=O)CCCCC)C1OC(=O)CCCCC (centres unmarked) [Compound A57-4-gly-4] — lower, 25.28
- CCCCCC(=O)OC1C(O)C(O)C(O)C(O)C1OC(=O)CCCCC (single isomer, unassigned) [Compound A57-4-gly-5] — lower, 22.44
- CCCCCC(=O)OC1C(O)C(O)C(O)C(O)C1OC(=O)CCCCC (single isomer, unassigned) [Compound A57-4-gly-2] — lower, 22.40
- CCCCCC(=O)OC1C(O)C(O)C(O)C(OC(C)=O)C1OC(=O)CCCCC (centres unmarked) [Compound A57-4-gly-1] — lower, 22.90
